Results taken from US20080254080A1, “Novel Uses of Calcium Hydroxide” (priority 2004, published 2008).

Columns and labels:
H5N1 virus = settings: cited from earlier work
[1] = tested on: warts, toe and foot fungus, skin tags; experiment: Topical use of hydrated lime; settings: in vivo
[2] = tested on: different bacterial strains including Bacillus subtilis; settings: agar diffusion; hydrated spores; cited from earlier work

SMILES	susceptibility of H5N1 virus currently infecting birds in Asia (H5N1 virus)	removal of warts, toe and foot fungus, skin tags [1]	antimicrobial activity compared with the other antimicrobial agents (MTA, Portland cement, Sealapex, Dycal) [2]
CC(N)C12CC3CC(CC(C3)C1)C2 (stereo not shown) [rimantadine]	resistant	–	–
[Ca+2].[OH-].[OH-] [calcium hydroxide]	–	shown to remove warts, toe and foot fungus, skin tags	superior
NC12CC3CC(CC(C3)C1)C2 [amantadine]	resistant	–	–
